Assay results published in patent publication US12268667B2, “JAK1 pathway inhibitors for the treatment of prurigo nodularis” (Incyte Corporation, priority 2021, dated 2025).

Legend:
[1] = molecular target: human JAK1 (a.a. 837-1142) (Homo sapiens, UniProt P23458); assay: In vitro JAK kinase assay (HTRF), JAK1; format: biochemical; conditions: 1 mM ATP
Description: (§1) The catalytic activity of JAK1, JAK2 or JAK3 are assayed by measuring the phosphorylation of a biotinylated peptide. The phosphorylated peptide was detected by homogenous time resolved fluorescence (HTRF). […] Reactions are carried out at room temperature for 1 hour and then stopped with 20 μL 45 mM EDTA, 300 nM SA-APC, 6 nM Eu-Py20 in assay buffer (Perkin Elmer, Boston, MA). Binding to the Europium labeled antibody takes place for 40 minutes and HTRF signal was measured on a Fusion plate reader (Perkin Elmer, Boston, MA).

[2] = molecular target: human JAK2 (a.a. 828-1132) (Homo sapiens (Human), UniProt O60674); assay: In vitro JAK kinase assay (HTRF), JAK2; format: biochemical; conditions: JAK2/JAK1 IC50 ratio at 1 mM ATP
Chain of human JAK2 (a.a. 828-1132) (O60674 828-1132): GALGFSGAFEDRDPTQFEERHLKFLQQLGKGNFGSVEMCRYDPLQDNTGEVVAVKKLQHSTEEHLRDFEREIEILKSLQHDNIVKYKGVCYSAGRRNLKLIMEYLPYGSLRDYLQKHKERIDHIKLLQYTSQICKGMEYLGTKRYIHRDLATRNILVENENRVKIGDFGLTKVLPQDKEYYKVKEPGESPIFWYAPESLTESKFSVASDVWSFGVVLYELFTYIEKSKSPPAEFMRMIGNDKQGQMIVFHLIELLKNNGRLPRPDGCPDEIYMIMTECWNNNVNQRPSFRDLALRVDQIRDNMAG
Description: as §1

| IC50 [1] [nM] | JAK2/JAK1 [2] | SMILES |
| --- | --- | --- |
| < 10 | >10 | N#CCC1(n2cc(-c3ncnc4[nH]ccc34)cn2)CN([C@H]2CC[C@@H](Oc3cc(CN4CC[C@@H](O)C4)cc(C(F)(F)F)n3)CC2)C1 [Compound 21, {1-(cis-4-{[4-{[(3R)-3-hydroxypyrrolidin-1-yl]methyl}-6-(trifluoromethyl)pyridin-2-yl]oxy}cyclohexyl)-3-[4-(7H-pyrrolo[2,3-d]pyrimidin-4-yl)-1H-pyrazol-1-yl]azetidin-3-yl}acetonitrile] |
| < 10 | >10 | N#CC[C@]1(n2cc(-c3ncnc4[nH]ccc34)cn2)C[C@H](N2CCC(Oc3cc(CN4CCC[C@H]4CO)cc(C(F)(F)F)n3)CC2)C1 [Compound 12, {trans-3-(4-{[4-{[(2S)-2-(hydroxymethyl)pyrrolidin-1-yl]methyl}-6-(trifluoromethyl)pyridin-2-yl]oxy}piperidin-1-yl)-1-[4-(7H-pyrrolo[2,3-d]pyrimidin-4-yl)-1H-pyrazol-1-yl]cyclobutyl}acetonitrile] |
| < 10 | >10 | N#CCC(CN1CCN(C(=O)c2ccc(C#N)cc2F)CC1)n1ccc(-c2ncnc3[nH]ccc23)c1 (centres unmarked) [Compound 9, 4-[(4-{3-cyano-2-[3-(7H-pyrrolo[2,3-d]pyrimidin-4-yl)-1H-pyrrol-1-yl]propyl}piperazin-1-yl)carbonyl]-3-fluorobenzonitrile] |
| < 10 | >10 | C[C@@H](CO)NCc1cc(OC2CCN([C@H]3C[C@](CC#N)(n4cc(-c5ncnc6[nH]ccc56)cn4)C3)CC2)nc(C(F)(F)F)c1 [Compound 23, {trans-3-(4-{[4-({[(1S)-2-hydroxy-1-methylethyl]amino}methyl)-6-(trifluoromethyl)pyridin-2-yl]oxy}piperidin-1-yl)-1-[4-(7H-pyrrolo[2,3-d]pyrimidin-4-yl)-1H-pyrazol-1-yl]cyclobutyl}acetonitrile] |
| < 10 | >10 | N#CC[C@]1(n2cc(-c3ncnc4[nH]ccc34)cn2)C[C@H](N2CCC(Oc3cc(CN4CC(O)C4)cc(C(F)(F)F)n3)CC2)C1 [Compound 11, {trans-3-(4-{[4-[(3-hydroxyazetidin-1-yl)methyl]-6-(trifluoromethyl)pyridin-2-yl]oxy}piperidin-1-yl)-1-[4-(7H-pyrrolo[2,3-d]pyrimidin-4-yl)-1H-pyrazol-1-yl]cyclobutyl}acetonitrile] |
| < 10 | >10 | C[C@@H](O)CNCc1cc(OC2CCN([C@H]3C[C@](CC#N)(n4cc(-c5ncnc6[nH]ccc56)cn4)C3)CC2)nc(C(F)(F)F)c1 [Compound 24, {trans-3-(4-{[4-({[(2R)-2-hydroxypropyl]amino}methyl)-6-(trifluoromethyl)pyridin-2-yl]oxy}piperidin-1-yl)-1-[4-(7H-pyrrolo[2,3-d]pyrimidin-4-yl)-1H-pyrazol-1-yl]cyclobutyl}acetonitrile] |
| < 10 | >10 | N#CCC1(n2cc(-c3ncnc4[nH]ccc34)cn2)CN([C@H]2CC[C@@H](Oc3cc(CN4CC[C@H](O)C4)cc(C(F)(F)F)n3)CC2)C1 [Compound 22, {1-(cis-4-{[4-{[(3S)-3-hydroxypyrrolidin-1-yl]methyl}-6-(trifluoromethyl)pyridin-2-yl]oxy}cyclohexyl)-3-[4-(7H-pyrrolo[2,3-d]pyrimidin-4-yl)-1H-pyrazol-1-yl]azetidin-3-yl}acetonitrile] |
| < 10 | >10 | N#CCC(C1CCN(c2nc3cccnc3o2)C1)n1cc(-c2ncnc3[nH]ccc23)cn1 (centres unmarked) [Compound 7, 3-(1-[1,3]oxazolo[5,4-b]pyridin-2-ylpyrrolidin-3-yl)-3-[4-(7H-pyrrolo[2,3-d]pyrimidin-4-yl)-1H-pyrazol-1-yl]propanenitrile] |
| < 10 | >10 | CCNCc1cc(O[C@H]2CC[C@@H](N3CC(CC#N)(n4cc(-c5ncnc6[nH]ccc56)cn4)C3)CC2)nc(C(F)(F)F)c1 [Compound 19, {1-(cis-4-{[4-[(ethylamino)methyl]-6-(trifluoromethyl)pyridin-2-yl]oxy}cyclohexyl)-3-[4-(7H-pyrrolo[2,3-d]pyrimidin-4-yl)-1H-pyrazol-1-yl]azetidin-3-yl}acetonitrile] |
| < 100 | >10 | C[C@@H](O)c1nc2cnc3ccsc3c2n1[C@H]1CC[C@H](CC#N)OC1 [Compound 5, ((2R,5S)-5-{2-[(1R)-1-hydroxyethyl]-1H-imidazo[4,5-d]thieno[3,2-b]pyridin-1-yl}tetrahydro-2H-pyran-2-yl)acetonitrile] |
| < 10 | >10 | N#CC[C@]1(n2cc(-c3ncnc4[nH]ccc34)cn2)C[C@H](N2CCC(Oc3cc(CN4CCC[C@@H]4CO)cc(C(F)(F)F)n3)CC2)C1 [Compound 13, {trans-3-(4-{[4-{[(2R)-2-(hydroxymethyl)pyrrolidin-1-yl]methyl}-6-(trifluoromethyl)pyridin-2-yl]oxy}piperidin-1-yl)-1-[4-(7H-pyrrolo[2,3-d]pyrimidin-4-yl)-1H-pyrazol-1-yl]cyclobutyl}acetonitrile] |
| < 10 | >10 | N#CCC(C1CCN(c2cccc(Cl)n2)C1)n1cc(-c2ncnc3[nH]ccc23)cn1 (single isomer, unassigned) [Compound 6, 3-[1-(6-chloropyridin-2-yl)pyrrolidin-3-yl]-3-[4-(7H-pyrrolo[2,3-d]pyrimidin-4-yl)-1H-pyrazol-1-yl]propanenitrile] |
| < 10 | >10 | C[C@H](NC(=O)c1cc(F)c(N2CC(CC#N)(n3cc(-c4ncnc5[nH]ccc45)cn3)C2)cc1F)C(F)(F)F [Compound 16, 4-{3-(cyanomethyl)-3-[4-(7H-pyrrolo[2,3-d]pyrimidin-4-yl)-1H-pyrazol-1-yl]azetidin-1-yl}-2,5-difluoro-N-[(1S)-2,2,2-trifluoro-1-methylethyl]benzamide] |
| < 10 | >10 | N#CCC1(n2cc(-c3ncnc4[nH]ccc34)cn2)CN(C2CCN(C(=O)c3ccnc(C(F)(F)F)c3F)CC2)C1 [Compound 4, {1-{1-[3-Fluoro-2-(trifluoromethyl)isonicotinoyl]piperidin-4-yl}-3-[4-(7H-pyrrolo[2,3-d]pyrimidin-4-yl)-1H-pyrazol-1-yl]azetidin-3-yl}acetonitrile] |
| < 10 | >10 | CC(C)(O)c1cc(O[C@H]2CC[C@@H](N3CC(CC#N)(n4cc(-c5ncnc6[nH]ccc56)cn4)C3)CC2)nc(C(F)(F)F)c1 [Compound 20, {1-(cis-4-{[4-(1-hydroxy-1-methylethyl)-6-(trifluoromethyl)pyridin-2-yl]oxy}cyclohexyl)-3-[4-(7H-pyrrolo[2,3-d]pyrimidin-4-yl)-1H-pyrazol-1-yl]azetidin-3-yl}acetonitrile] |
| < 10 | >10 | C[C@H](O)CNCc1cc(OC2CCN([C@H]3C[C@](CC#N)(n4cc(-c5ncnc6[nH]ccc56)cn4)C3)CC2)nc(C(F)(F)F)c1 [Compound 25, {trans-3-(4-{[4-({[(2S)-2-hydroxypropyl]amino}methyl)-6-(trifluoromethyl)pyridin-2-yl]oxy}piperidin-1-yl)-1-[4-(7H-pyrrolo[2,3-d]pyrimidin-4-yl)-1H-pyrazol-1-yl]cyclobutyl}acetonitrile] |
| < 10 | >10 | N#CC[C@]1(n2cc(-c3ncnc4[nH]ccc34)cn2)C[C@H](N2CCC(Oc3cc(CCO)cc(C(F)(F)F)n3)CC2)C1 [Compound 26, {trans-3-(4-{[4-(2-hydroxyethyl)-6-(trifluoromethyl)pyridin-2-yl]oxy}piperidin-1-yl)-1-[4-(7H-pyrrolo[2,3-d]pyrimidin-4-yl)-1H-pyrazol-1-yl]cyclobutyl}acetonitrile] |
| < 10 | >10 | N#CCC1(n2cc(-c3ncnc4[nH]ccc34)cn2)CN(C2CCN(C(=O)c3ccnc(C(F)(F)F)n3)CC2)C1 [Compound 3, [3-[4-(7H-pyrrolo[2,3-d]pyrimidin-4-yl)-1H-pyrazol-1-yl]-1-(1-{[2-(trifluoromethyl)pyrimidin-4-yl]carbonyl}piperidin-4-yl)azetidin-3-yl]acetonitrile] |
| < 10 | >10 | N#CCC(CN1CCN(C(=O)c2ccc(C#N)cc2F)CC1)n1cc(-c2ncnc3[nH]ccc23)cn1 (centres unmarked) [Compound 8, 4-[(4-{3-cyano-2-[4-(7H-pyrrolo[2,3-d]pyrimidin-4-yl)-1H-pyrazol-1-yl]propyl}piperazin-1-yl)carbonyl]-3-fluorobenzonitrile] |
| < 10 | >10 | N#CCC1(n2cc(-c3ncnc4[nH]ccc34)cn2)CN(C2CCN(C(=O)Nc3ccc(F)cc3C(F)(F)F)CC2)C1 [Compound 2, 4-{3-(Cyanomethyl)-3-[4-(7H-pyrrolo[2,3-d]pyrimidin-4-yl)-1H-pyrazol-1-yl]azetidin-1-yl}-N-[4-fluoro-2-(trifluoromethyl)phenyl] piperidine-1-carboxamide] |
| < 10 | >10 | N#CC[C@]1(n2cc(-c3ncnc4[nH]ccc34)cn2)C[C@H](N2CCN(C(=O)c3ccnc(C(F)(F)F)n3)CC2)C1 [Compound 10, [trans-1-[4-(7H-pyrrolo[2,3-d]pyrimidin-4-yl)-1H-pyrazol-1-yl]-3-(4-{[2-(trifluoromethyl)pyrimidin-4-yl]carbonyl}piperazin-1-yl)cyclobutyl]acetonitrile] |
| < 10 | >10 | N#CCC1(n2cc(-c3ncnc4[nH]ccc34)cn2)CN([C@H]2CC[C@@H](Oc3cc(CCO)nc(C(F)(F)F)n3)CC2)C1 [Compound 18, {1-(cis-4-{[6-(2-hydroxyethyl)-2-(trifluoromethyl)pyrimidin-4-yl]oxy}cyclohexyl)-3-[4-(7H-pyrrolo[2,3-d]pyrimidin-4-yl)-1H-pyrazol-1-yl]azetidin-3-yl}acetonitrile] |
